Laboratory results taken from patent US20080318326A1 (priority 2005, published 2008).
Peptide text beside a SMILES is read from it.

Assay: Alamethicin channel currents across PTFE-supported bilayer lipid membrane
Assay type: biochemical
Settings: alamethicin 100 ng/ml on both sides of PTFE support matrix
Description: Alamethicin is a peptide that spontaneously inserts itself into a bilayer lipid membrane. Molecules of alamethicin can diffuse within the plane of the membrane and may associate with other alamethicin molecules to form a channel for the passage of small ions when a voltage is applied across a bilayer lipid membrane.
Given the above, alamethicin was used as an indicator of bilayer lipid membrane formation success.
In this example, alamethicin is dissolved in 100% ethanol (5 μg/ml) and stored at 4° C. After the bilayer lipid membrane is formed, alamethicin is added to solutions on both sides of the PTFE support matrix 11 to a final concentration of 100 ng/ml. Electrochemical measurements were then carried out using a two electrode system. Silver/silver chloride wires were used as the working and reference electrodes and based on measurements taken, channels were observed after 10 minutes.
The nature of the electrical current caused by the flow of ions is understood to be dependent on: • 1. The concentration of ions bathing the bilayer lipid membrane, • 2. The voltage applied and, • 3. The concentration of alamethicin.

SMILES: CC(=O)NC(C)(C)C(=O)N1CCC[C@H]1C(=O)NC(C)(C)C(=O)N[C@@H](C)C(=O)NC(C)(C)C(=O)N[C@@H](C)C(=O)N[C@@H](CCC(N)=O)C(=O)NC(C)(C)C(=O)N[C@H](C(=O)NC(C)(C)C(=O)NCC(=O)N[C@@H](CC(C)C)C(=O)NC(C)(C)C(=O)N1CCC[C@H]1C(=O)N[C@H](C(=O)NC(C)(C)C(=O)NC(C)(C)C(=O)N[C@@H](CCC(=O)O)C(=O)N[C@@H](CCC(N)=O)C(=O)N[C@H](CO)Cc1ccccc1)C(C)C)C(C)C [alamethicin] (HELM PEPTIDE1{[ac].[Aib].P.[Aib].A.[Aib].A.Q.[Aib].V.[Aib].G.L.[Aib].P.V.[Aib].[Aib].E.Q.[OC[C@H](Cc1ccccc1)N[*:1]]}$$$$V2.0)
- time after which channels were observed: 10 min
